According to US8697694B2, “Substituted pyridine and pyrimidine derivatives and their use in treating viral infections” (priority 2008, dated 2014):

Test system: HCV replicon cells
Assay: Cell-based HCV replicon assay (replicon RNA level by real time PCR, Taqman)
Settings: Hepatitis C virus, 72 h, HCV replicon cells, replicon RNA level by real time PCR, harvested day 3; read-out: EC90 (μM) range
Procedure, shortened: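 HCV replicon cells treated 3 days with 10 serial 2-fold compound dilutions (top 25 μM to 1 μM; 0.5% DMSO, 10% FBS). Replicon RNA quantified by multiplex Taqman RT-PCR (NS5B amplicon, GAPDH control); EC50 and EC90 = concentrations giving ΔCT of 1 and 3.2 over baseline.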

Row | SMILES | EC90 [µM]
1 | CCNC(=O)OC[C@H]1C[C@@H](Nc2nc(NCC3CC3)nc(C)c2-c2nc3ccccc3s2)[C@H](O)[C@@H]1O [Example 1629] | 0.5 to 5
2 | Cc1nc(NCC(F)(F)F)nc(N[C@@H]2C[C@H](C)[C@@H](O)[C@H]2O)c1-c1nc2ccccc2s1 [Example 1630] | < 0.5
3 | Cc1nc(NCC(F)(F)F)nc(N[C@@H]2C[C@H](C(C)O)[C@@H](O)[C@H]2O)c1-c1nc2ccccc2s1 (stereo partly shown) [Example 1632] | < 0.5
4 | Cc1nc(NCC(F)(F)F)nc(N[C@@H]2C[C@H](C)[C@@H](O)[C@H]2O)c1-c1nc2cnccc2s1 [Example 1633] | < 0.5
5 | Cc1nc(NCC2CC2)nc(N[C@@H]2C[C@H](C)[C@@H](O)[C@H]2O)c1-c1nc2cnccc2s1 [Example 1634] | < 0.5
6 | Cc1nc(NCC(F)(F)F)nc(N[C@@H]2C[C@H](CC#N)[C@@H](O)[C@H]2O)c1-c1nc2ccccc2s1 [Example 1635] | < 0.5
7 | CC(=O)C1=C[C@@H](O)[C@H](Nc2nc(NCC(F)(F)F)nc(C)c2-c2nc3ccccc3s2)C1 [Example 1636] | < 0.5
8 | CCC(O)[C@H]1C[C@@H](Nc2nc(NCC(F)(F)F)nc(C)c2-c2nc3ccccc3s2)[C@H](O)[C@@H]1O (stereo partly shown) [Example 1637] | 0.5 to 5
9 | Cc1nc(NCC(F)(F)F)nc(N[C@@H]2C[C@H](C(O)C(C)C)[C@@H](O)[C@H]2O)c1-c1nc2ccccc2s1 (stereo partly shown) [Example 1638] | 0.5 to 5
10 | Cc1nc(NCC(F)(F)F)nc(N[C@@H]2C[C@H](C(O)c3nccs3)[C@@H](O)[C@H]2O)c1-c1nc2ccccc2s1 (stereo partly shown) [Example 1639] | < 0.5
11 | Cc1nc(NCC(F)(F)F)nc(N[C@@H]2C[C@H](C(C)(C)O)[C@@H](O)[C@H]2O)c1-c1nc2ccccc2s1 [Example 1640] | 0.5 to 5
12 | Cc1nc(NCC2CC2)nc(N[C@@H]2C[C@H](C(C)O)[C@@H](O)[C@H]2O)c1-c1nc2cnccc2s1 (stereo partly shown) [Example 1641] | < 0.5
13 | Cc1nc(N[C@H](C)C2CC2)nc(N[C@@H]2C[C@H](C(C)O)[C@@H](O)[C@H]2O)c1-c1nc2cnccc2s1 (stereo partly shown) [Example 1642] | < 0.5
14 | Cc1nc(N[C@H](C)c2ccc(OC(F)(F)F)cc2)nc(N[C@@H]2C[C@H](C(C)O)[C@@H](O)[C@H]2O)c1-c1nc2cnccc2s1 (stereo partly shown) [Example 1649] | < 0.5
15 | Cc1nc(NCC2CC2)nc(N[C@@H]2C[C@@H](C(C)O)[C@@H](O)[C@H]2O)c1-c1nc2cnccc2s1 (stereo partly shown) [Example 1650] | < 0.5
16 | Cc1nc(N[C@H](C)C2CC2)nc(N[C@@H]2C[C@@H](C(C)O)[C@@H](O)[C@H]2O)c1-c1nc2cnccc2s1 (stereo partly shown) [Example 1651] | < 0.5
17 | Cc1nc(N[C@H](C)c2ccc(OC(F)(F)F)cc2)nc(N[C@@H]2C[C@@H](C(C)O)[C@@H](O)[C@H]2O)c1-c1nc2cnccc2s1 (stereo partly shown) [Example 1652] | < 0.5
18 | Cc1nc(NCC(F)(F)F)nc(N[C@@H]2C[C@H](C(O)c3nccn3C)[C@@H](O)[C@H]2O)c1-c1nc2ccccc2s1 (stereo partly shown) [Example 1653] | < 0.5
19 | Cc1nc(NCC(F)(F)F)nc(N[C@@H]2C[C@H](C(O)c3ncc[nH]3)[C@@H](O)[C@H]2O)c1-c1nc2ccccc2s1 (stereo partly shown) [Example 1654] | 0.5 to 5
20 | Cc1nc(NCC2CC2)nc(N[C@@H]2CC[C@@H](O)[C@@]2(C)O)c1-c1nc2ccccc2s1 [Example 1701] | 0.5 to 5
21 | Cc1nc(NCC(F)(F)F)nc(N[C@@H]2CC[C@@H](O)[C@@]2(C)O)c1-c1nc2ccccc2s1 [Example 1702] | 0.5 to 5
22 | Cc1nc(N[C@@H](c2ccsc2)C(F)(F)F)nc(N[C@@H]2C[C@H](CO)[C@@H](O)[C@H]2O)c1-c1nc2ccccc2s1 [Example 1703] | 0.5 to 5
23 | Cc1nc(NCC2CC2)nc(N[C@@H]2CC[C@@H](O)[C@@]2(C)O)c1-c1nc2cnccc2s1 [Example 1704] | < 0.5

Row | SMILES | EC90 [µM]
24 | CCOc1ccc(CCNc2nc(C)c(-c3nc4cnccc4s3)c(N[C@@H]3C[C@H](CO)[C@@H](O)[C@H]3O)n2)cc1 [Example 1705] | < 0.5
25 | Cc1ccsc1CCNc1nc(C)c(-c2nc3ccccc3s2)c(N[C@@H]2C[C@H](CO)[C@@H](O)[C@H]2O)n1 [Example 1706] | 0.5 to 5
26 | Cc1ccsc1CCNc1nc(C)c(-c2nc3cnccc3s2)c(N[C@@H]2C[C@H](CO)[C@@H](O)[C@H]2O)n1 [Example 1707] | < 0.5
27 | Cc1ccc([C@@H](C)Nc2nc(C)c(-c3nc4cnccc4s3)c(N[C@@H]3C[C@H](CO)[C@@H](O)[C@@]3(C)O)n2)cc1 [Example 1708] | < 0.5
28 | Cc1nc(NCC(F)(F)F)nc(N[C@@H]2C[C@H](CO)[C@@H](O)[C@@]2(C)O)c1-c1nc2cnccc2s1 [Example 1709] | < 0.5
29 | Cc1nc(N[C@@H](c2cccs2)C(F)(F)F)nc(N[C@@H]2C[C@H](CO)[C@@H](O)[C@H]2O)c1-c1nc2ccccc2s1 [Example 1801] | < 0.5
30 | Cc1nc(NC(C)c2cccnc2)nc(N[C@@H]2C[C@H](CO)[C@@H](O)[C@H]2O)c1-c1nc2ccccc2s1 (stereo partly shown) [Example 1802] | 0.5 to 5
31 | Cc1nc(N[C@H](c2cccs2)C(F)(F)F)nc(N[C@@H]2C[C@H](CO)[C@@H](O)[C@H]2O)c1-c1nc2ccccc2s1 [Example 1803] | > 5
32 | Cc1nc(NCc2c(F)cccc2F)nc(N[C@@H]2C[C@H](CO)[C@@H](O)[C@H]2O)c1-c1nc2cnccc2s1 [Example 1804] | < 0.5
33 | Cc1nc(NCCc2cccs2)nc(N[C@@H]2C[C@H](CO)[C@@H](O)[C@H]2O)c1-c1nc2ccccc2s1 [Example 1805] | < 0.5
34 | Cc1nc(NCCc2cccs2)nc(N[C@@H]2C[C@H](CO)[C@@H](O)[C@H]2O)c1-c1nc2cnccc2s1 [Example 1806] | > 5
35 | Cc1nc(NCc2c(F)cccc2F)nc(N[C@@H]2CC[C@@H](O)[C@@]2(C)O)c1-c1nc2cnccc2s1 [Example 1808] | < 0.5
36 | Cc1nc(NCC(F)(F)F)nc(N[C@@H]2CC[C@@H](O)[C@@]2(C)O)c1-c1nc2cnccc2s1 [Example 1809] | 0.5 to 5
37 | Cc1ccc([C@H](C)Nc2nc(C)c(-c3nc4cnccc4s3)c(N[C@@H]3CC[C@@H](O)[C@@]3(C)O)n2)cc1 [Example 1810] | < 0.5
38 | Cc1nc(N[C@H](C)C2CC2)nc(N[C@@H]2CC[C@@H](O)[C@@]2(C)O)c1-c1nc2cnccc2s1 [Example 1811] | < 0.5
39 | Cc1ccc(CCNc2nc(C)c(-c3nc4ccccc4s3)c(N[C@@H]3C[C@H](CO)[C@@H](O)[C@H]3O)n2)s1 [Example 1812] | 0.5 to 5
40 | Cc1ccc(CCNc2nc(C)c(-c3nc4cnccc4s3)c(N[C@@H]3C[C@H](CO)[C@@H](O)[C@H]3O)n2)s1 [Example 1813] | < 0.5
41 | Cc1nc(NCc2c(F)cccc2F)nc(N[C@@H]2CC[C@@H](O)[C@@]2(C)O)c1-c1nc2c(C)nccc2s1 [Example 1814] | < 0.5
42 | Cc1nc(NCC2CC2)nc(N[C@@H]2CC[C@@H](O)[C@@]2(C)O)c1-c1nc2c(C)nccc2s1 [Example 1815] | < 0.5
43 | Cc1nc(NCC(F)(F)F)nc(N[C@@H]2CC[C@@H](O)[C@@]2(C)O)c1-c1nc2c(C)nccc2s1 [Example 1816] | < 0.5
44 | Cc1nc(N[C@H](C)C2CC2)nc(N[C@@H]2CC[C@@H](O)[C@@]2(C)O)c1-c1nc2c(C)nccc2s1 [Example 1817] | < 0.5
45 | COc1ccc(CCNc2nc(C)c(-c3nc4cnccc4s3)c(N[C@@H]3CC[C@@H](O)[C@@]3(C)O)n2)cc1Cl [Example 1818] | 0.5 to 5
46 | CCOCCNc1nc(C)c(-c2nc3cnccc3s2)c(N[C@@H]2CC[C@@H](O)[C@@]2(C)O)n1 [Example 1819] | < 0.5
